Our source for the LC retention time values is the RepoRT retention time repository (doi:10.1016/j.chroma.2012.03.059).

This data set in a line: RP, Agilent ZORBAX Eclipse XDB-C8, 150 × 4.6 mm, 3.5 µm, 25 °C, 0.6 mL/min, estimated dead time 2.6 min; A: water + 0.1% formic acid; B: acetonitrile + 0.1% formic acid; gradient (min/%B) 0/10 5/10 30/100. The note with it: stereoisomer not certain.
For `CNC(=C[N+](=O)[O-])NCCSCc1ccc(CN(C)C)o1`, the LC retention time is 4.6 min.

Regarding `COc1cccc(C2(O)CCCCC2CN(C)C)c1` (stereo unspecified), the LC retention time was 11.1 min.

Take `COc1ccccc1OCC(O)CO` (stereo unspecified): the LC retention time was 12.7 min.

In the case of `Cc1nnc(NS(=O)(=O)c2ccc(N)cc2)s1`, the LC retention time is 12.7 min.

For the compound `CON=C(C(=O)NC1C(=O)N2C(C(=O)O)=C(COC(C)=O)CSC12)c1csc(N)n1` (stereo unspecified), the LC retention time is 12.9 min.

`NC(=O)N1c2ccccc2C=Cc2ccccc21`: the LC retention time is 17.2 min.

As to `CC12CCC(O)CC1CCC1C2CC(O)C2(C)C(C3=CC(=O)OC3)CCC12O` (stereo unspecified), the LC retention time is 13.4 min.

For `CCC1OC(=O)C(C)C(OC2CC(C)(OC)C(O)C(C)O2)C(C)C(OC2OC(C)CC(N(C)C)C2O)C(C)(O)CC(C)C(=O)C(C)C(O)C1(C)O` (stereo unspecified), the LC retention time is 14.6 min.

In the case of `COc1ccc2c(c1)C13CCCCC1C(C2)N(C)CC3` (stereo unspecified), the LC retention time is 14.6 min.

With `O=C1NC(=O)C(c2ccccc2)(c2ccccc2)N1`, the LC retention time was 17.1 min.

`CC(=O)Nc1ccc(O)cc1`: the LC retention time was 6.5 min.

Regarding `Cc1onc(-c2ccccc2)c1C(=O)NC1C(=O)N2C1SC(C)(C)C2C(=O)O` (stereo unspecified), the LC retention time is 19.2 min.

With `CC1(C)SC2C(NC(=O)C(N)c3ccccc3)C(=O)N2C1C(=O)O` (stereo unspecified), the LC retention time was 10.4 min.

Consider `NC(=O)N1c2ccccc2CC(O)c2ccccc21` (stereo unspecified), for which the LC retention time was 13.9 min.

`CCCC(C)(COC(N)=O)COC(N)=O`: the LC retention time is 14.7 min.

Turning to `CC(C)NCC(O)COc1ccc(CC(=O)O)cc1` (stereo unspecified), the LC retention time is 9.4 min.

`Cc1cccc(Nc2ccccc2C(=O)O)c1C`: the LC retention time was 24.6 min.

As for `Cc1ccc(C)c(OCCCC(C)(C)C(=O)O)c1`, the LC retention time was 25 min.

On to `NCC1(CC(=O)O)CCCCC1`, for which the LC retention time is 6.5 min.

For `Cc1cc(NS(=O)(=O)c2ccc(N)cc2)no1`, the LC retention time was 15.3 min.

`CC1(C)SC2C(NC(=O)Cc3ccccc3)C(=O)N2C1C(=O)O` (stereo unspecified): the LC retention time was 16.9 min.

`CCC1OC(=O)CC(O)C(C)C(OC2OC(C)C(OC3CC(C)(O)C(O)C(C)O3)C(N(C)C)C2O)C(CC=O)CC(C)C(=O)C=CC(C)=CC1COC1OC(C)C(O)C(OC)C1OC` (stereo unspecified): the LC retention time is 15 min.

Turning to `CC(=O)CC(c1ccccc1)c1c(O)c2ccccc2oc1=O` (stereo unspecified), the LC retention time was 21.4 min.

Take `CCC(=O)C(CC(C)N(C)C)(c1ccccc1)c1ccccc1` (stereo unspecified): the LC retention time is 16.6 min.

As to `CCC1OC(=O)C(C)C(OC2CC(C)(OC)C(O)C(C)O2)C(C)C(OC2OC(C)CC(N(C)C)C2O)C(C)(OC)CC(C)C(=O)C(C)C(O)C1(C)O` (stereo unspecified), the LC retention time was 16 min.

As to `CC(C)Cc1ccc(C(C)C(=O)O)cc1` (stereo unspecified), the LC retention time is 23.6 min.

`NC(=O)N1c2ccccc2CC(=O)c2ccccc21`: the LC retention time is 15.8 min.

In the case of `Nc1ccc(S(N)(=O)=O)cc1`, the LC retention time was 4.6 min.

On to `COc1ccc(C(CN(C)C)C2(O)CCCCC2)cc1` (stereo unspecified), for which the LC retention time is 13.5 min.

Take `CCC1OC(=O)C(C)C(OC2CC(C)(OC)C(O)C(C)O2)C(C)C(OC2OC(C)CC(N(C)C)C2O)C(C)(O)CC(C)CN(C)C(C)C(O)C1(C)O` (stereo unspecified): the LC retention time is 12.2 min.

Turning to `Cn1c(=O)c2c(ncn2C)n(C)c1=O`, the LC retention time was 9.8 min.

As for `COCCc1ccc(OCC(O)CNC(C)C)cc1` (stereo unspecified), the LC retention time was 12.1 min.

`c1ccc2[nH]c(-c3cscn3)nc2c1`: the LC retention time was 8.8 min.

Consider `CCn1cc(C(=O)O)c(=O)c2cc3c(cc21)OCO3`, for which the LC retention time is 15.4 min.

As for `CCC1OC(=O)C(C)C(OC2CC(C)(OC)C(O)C(C)O2)C(C)C(OC2OC(C)CC(N(C)C)C2O)C(C)(O)CC(C)C(=NOCOCCOC)C(C)C(O)C1(C)O` (stereo unspecified), the LC retention time is 16.2 min.

As for `NC(=O)N1c2ccccc2C(O)C(O)c2ccccc21` (stereo unspecified), the LC retention time was 12.9 min.

With `COc1cc(NS(=O)(=O)c2ccc(N)cc2)nc(OC)n1`, the LC retention time is 16.5 min.

Turning to `CN(C)CC(c1ccc(O)cc1)C1(O)CCCCC1` (stereo unspecified), the LC retention time is 11.3 min.

As to `CN1CCC23CCCCC2C1Cc1ccc(O)cc13` (stereo unspecified), the LC retention time was 12.1 min.

Regarding `COc1ccc2c3c1OC1C(=O)CCC4(O)C(C2)N(C)CCC314` (stereo unspecified), the LC retention time was 9.4 min.

Regarding `COc1ccc2c3c1OC1C(=O)CCC4C(C2)N(C)CCC314` (stereo unspecified), the LC retention time is 10.1 min.

On to `Nc1ccc(S(=O)(=O)Nc2ncccn2)cc1`, for which the LC retention time is 9.9 min.

Consider `COc1ccc2c3c1OC1C(O)C=CC4C(C2)N(C)CCC341` (stereo unspecified), for which the LC retention time is 7 min.

In the case of `Cn1c(=O)[nH]c2ncn(C)c2c1=O`, the LC retention time is 6.3 min.

Consider `CCC(C)(C)C(=O)OC1CC(C)C=C2C=CC(C)C(CCC3CC(O)CC(=O)O3)C21` (stereo unspecified), for which the LC retention time was 26.9 min.

For `CC(C(=O)O)c1cccc(C(=O)c2ccccc2)c1` (stereo unspecified), the LC retention time was 19 min.

Turning to `CCCC1CC(C(=O)NC(C(C)O)C2OC(SC)C(O)C(O)C2O)N(C)C1` (stereo unspecified), the LC retention time was 8.7 min.

Take `O=C(c1ccccc1)c1ccc2n1CCC2C(=O)O` (stereo unspecified): the LC retention time was 19.7 min.

Take `COC(=O)c1c(C)nc(C)c(C(=O)OC)c1-c1ccccc1[N+](=O)[O-]`: the LC retention time is 20.5 min.

For the compound `CN=C(NC#N)NCCSCc1nc[nH]c1C`, the LC retention time was 4.3 min.

As for `Cc1ccnc(NS(=O)(=O)c2ccc(N)cc2)n1`, the LC retention time was 11.5 min.

For the compound `CC(C)NCC(O)COc1cccc2ccccc12` (stereo unspecified), the LC retention time is 14.4 min.

Turning to `COc1ccc2cc(C(C)C(=O)O)ccc2c1` (stereo unspecified), the LC retention time was 20.9 min.

For `CC(C)NCC(O)COc1ccc(CC(N)=O)cc1` (stereo unspecified), the LC retention time was 4.2 min.

Consider `CC1(C)SC2C(NC(=O)COc3ccccc3)C(=O)N2C1C(=O)O` (stereo unspecified), for which the LC retention time is 17.9 min.

Turning to `CN1C(=O)CCC1c1cccnc1` (stereo unspecified), the LC retention time is 3.2 min.

As to `COc1cc(Cc2cnc(N)nc2N)cc(OC)c1OC`, the LC retention time was 10.4 min.

`CCC1(c2ccccc2)C(=O)NCNC1=O`: the LC retention time is 12.7 min.

With `NC(=O)N1c2ccccc2CCc2ccccc21`, the LC retention time was 17.1 min.

Turning to `CC1=CC(O)CC(=O)Cc2nc(co2)C(=O)N2CCC=C2C(=O)OC(C(C)C)C(C)C=CC(=O)NCC=C1.CCC1NC(=O)C(NC(=O)c2ncccc2O)C(C)OC(=O)C(c2ccccc2)NC(=O)C2CC(=O)CCN2C(=O)C(Cc2ccccc2)N(C)C(=O)C2CCCN2C1=O` (stereo unspecified), the LC retention time is 18.4 min.

For the compound `Cc1cc(C)nc(NS(=O)(=O)c2ccc(N)cc2)n1`, the LC retention time is 12.4 min.

Take `CN(C)CCOC(c1ccccc1)c1ccccc1`: the LC retention time is 15.1 min.

`CC1OC(OC2C(O)CC(OC3C(O)CC(OC4CCC5(C)C(CCC6C5CC(O)C5(C)C(C7=CC(=O)OC7)CCC65O)C4)OC3C)OC2C)CC(O)C1O` (stereo unspecified): the LC retention time was 15.2 min.

Take `CC(C)(C)NCC(O)c1ccc(O)c(CO)c1` (stereo unspecified): the LC retention time was 4 min.

Turning to `Nc1ccc(S(=O)(=O)Nc2nccs2)cc1`, the LC retention time is 10.6 min.

Regarding `COc1ccc(C2Sc3ccccc3N(CCN(C)C)C(=O)C2OC(C)=O)cc1` (stereo unspecified), the LC retention time was 15.2 min.
